The source made the active and inactive calls. No cut-off for these calls is given here.

In data set [1] the target is T1, Urotensin-2 receptor (Rattus norvegicus, UniProt P49684).
T1 sequence (P49684 whole entry): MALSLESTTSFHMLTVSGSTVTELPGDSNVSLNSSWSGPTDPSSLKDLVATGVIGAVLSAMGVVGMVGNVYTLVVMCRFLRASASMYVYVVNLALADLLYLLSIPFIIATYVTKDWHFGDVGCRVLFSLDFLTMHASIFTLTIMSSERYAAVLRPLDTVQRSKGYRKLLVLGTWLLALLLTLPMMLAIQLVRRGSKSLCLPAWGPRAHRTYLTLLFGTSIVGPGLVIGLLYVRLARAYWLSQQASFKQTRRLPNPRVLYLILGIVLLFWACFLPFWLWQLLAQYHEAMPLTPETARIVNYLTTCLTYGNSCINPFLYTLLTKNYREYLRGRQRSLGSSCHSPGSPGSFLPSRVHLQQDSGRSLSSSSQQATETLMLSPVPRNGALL
Briefly: Antagonist activity at rat UT receptor transfected in CHOK1 cells assessed as calcium mobilization by FLIPR method. Type of data set: functional, cell-based, CHO-K1. (In general: Calcium assays in cells follow changes in intracellular calcium, usually with a dye or a luminescent sensor.)

For data set [2], the target named is T2, Urotensin-2 receptor (Homo sapiens, UniProt Q9UKP6).
T2 sequence (Q9UKP6 whole entry): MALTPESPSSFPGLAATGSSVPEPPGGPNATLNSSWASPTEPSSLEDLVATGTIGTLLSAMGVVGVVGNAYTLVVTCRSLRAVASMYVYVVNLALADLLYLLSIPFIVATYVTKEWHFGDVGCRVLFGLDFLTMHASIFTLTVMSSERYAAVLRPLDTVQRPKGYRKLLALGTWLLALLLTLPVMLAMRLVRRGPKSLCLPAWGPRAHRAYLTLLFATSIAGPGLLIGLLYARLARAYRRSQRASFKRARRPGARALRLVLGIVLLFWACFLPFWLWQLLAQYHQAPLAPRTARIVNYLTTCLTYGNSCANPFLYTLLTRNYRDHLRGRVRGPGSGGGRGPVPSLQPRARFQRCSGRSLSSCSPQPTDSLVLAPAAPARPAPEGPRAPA
Briefly: Displacement of [125I]U2 from human UT receptor in RMS13 cells after 2.5 hrs. Type of data set: cell-based. Background: Displacement assays read how much labelled ligand stays bound in the presence of the test substance.

Data set [3] can be described thus: Half life in rat at 2 mg/kg, iv. The data set is classed as ADME, organism-based. The following applies: in vivo. More on the design: dose 2 mg/kg, route intravenous.
Data set [4] is described as follows: Cmax in rat at 2 mg/kg, iv. Type of data set: ADME, organism-based. More on the design: dose 2 mg/kg, route intravenous. Conditions: in vivo.
Data set [5] relates to Rattus norvegicus. Put plainly: Effect on ear pinna temperature in sc dosed rat. The data set is classed as functional, organism-based.
Data set [6] deals with Rattus norvegicus. Put plainly: Decrease in U2-induced ear pinna temperature in iv dosed rat. The data set is classed as functional, organism-based.

One may read the IC50 as the midpoint of a concentration-inhibition curve. Consider `O=C1COc2ccccc2N1CCN1CCC(C(=O)NCc2ccccc2)(c2ccccc2)CC1`, for which the IC50 at Urotensin-2 receptor [1] was determined as 43000 nM.

For orientation: Ki means a dissociation constant, usually derived from enzyme kinetics or from competition with a known ligand. A lower Ki goes with higher affinity. `CC(C)(C)CC(=O)N1CCC(CNC(=O)c2cc(Cl)ccc2C2CCN(CCN3C(=O)COc4ccccc43)CC2)CC1` gave a Ki on Urotensin-2 receptor [2] of 27 nM. With `O=C(NCC1CCN(C(=O)c2ccccc2)CC1)c1cc(Cl)ccc1C1CCN(CCN2C(=O)COc3ccccc32)CC1`, the inhibition constant Ki at Urotensin-2 receptor [2] turned out to be 160 nM.

Turning to `CN(CCCc1ccccc1)C(=O)C1(c2ccccc2)CCN(CCN2C(=O)COc3ccccc32)CC1`, the IC50 at Urotensin-2 receptor [1] was found to be 9100 nM. At Urotensin-2 receptor [2], `CC(C)(C)OC(=O)N1CCC(CCNC(=O)c2cc(Cl)ccc2C2CCN(CCN3C(=O)COc4ccccc43)CC2)CC1` came in with a Ki of 77 nM. In other words, the double-digit nanomolar range. One may read the half-life as how long it takes for the measured level to halve. A low value points to fast loss. The term Cmax denotes the highest concentration seen after dosing. `CC(C)(C)OC(=O)N1CCN(CCNC(=O)c2cc(Cl)ccc2C2CCN(CCN3C(=O)COc4ccccc43)CC2)CC1` had a half-life in data set [3] of 2.12 h. The compound further yielded a Cmax in data set [4] of 553 ng/mL. Also, in the data set with Rattus norvegicus [5], the outcome was inactive. The same compound came in with an inhibition constant Ki on Urotensin-2 receptor [2] of 65 nM. At Urotensin-2 receptor [1], the IC50 came to 10 nM. Besides, in the data set on Rattus norvegicus [6], the outcome was Active. For the compound `CN(CCc1ccccc1)C(=O)C1(c2ccccc2)CCN(CCN2C(=O)COc3ccccc32)CC1`, on Urotensin-2 receptor [1], the IC50 was 12000 nM.

(Values after ChEMBL document CHEMBL1137625, “Phenylpiperidine-benzoxazinones as urotensin-II receptor antagonists: synthesis, SAR, and in vivo assessment” (Bioorg Med Chem Lett, 2007).)
